Reference: publication PMC3626286 (Chemical research in toxicology, 2013)
“And” between values parts separate entries of the source, which are not always exact repeats. Equal entries are not always repeated. “Also recorded” adds a separate entry of the source. Where two headings read alike, the source gives them in different places.

Assays:
rat hepatocytes [1] = conditions: complete inhibition of acyl glucuronidation; cited from earlier work
[2] = cited from earlier work
rat hepatocytes [3] = conditions: cited from earlier work
[4] = Chemical reactivity with GSH in buffer in the absence of GST; type: physicochemical; conditions: 1 μM, GSH 10 mM, 0.1 M potassium phosphate buffer pH 7.4, 37°C, without GST
rat hepatocytes [5] = type: in vitro ADME; conditions: for fold decrease in concentration on ice versus 37°C: 0°C versus 37°C; for concentration formed at 60 min / fold decrease in concentration on ice versus 37°C: 60 min
[6] = tested on: equine liver glutathione-S-transferase (GST); conditions: 1 μM, GSH 10 mM, equine liver GST 30 units/ml, pH 7.4, 37°C
[7] = Chemical stability in 0.1 M potassium phosphate buffer; type: physicochemical; conditions: for duration of incubation with no detectable hydrolysis: 1 μM, 0.1 M potassium phosphate buffer pH 7.4, 37°C, data not shown; for chemical stability over the 24 h incubation (in words): buffer, physiological conditions
equine liver GST = conditions: after 30 min incubation; cited from earlier work
rat hepatocytes [8] = conditions: cited from earlier work; remark: listed apart in the source
[9] = inhibitor 1 mM co-incubated with MFA
[10] = MFA 100 μM, rat hepatocytes, 37°C
[11] = in vitro in physiological buffer

CC(C(=O)O)c1ccccc1 (centres unmarked) [2-phenylpropionic acid]
decrease in covalent adduct formation (rat hepatocytes [1]): 18.7%

C[C@H](C(=O)O[C@@H]1O[C@H](C(=O)O)[C@@H](O)[C@H](O)[C@H]1O)c1ccccc1 [(S)-2-phenylpropionic-1-β-O-acyl glucuronide]
half-life of degradation (t1/2) [2]: 2.4 h

CC1(C)[C@H]2CC[C@]1(C)[C@H](O)C2 [(−)-borneol]
decrease in MFA-1-O-G formation (rat hepatocytes [3]; inhibitor 1 mM co-incubated with MFA (10 μM, 10 min)): 91% | inhibition of MFA-GSH formation (rat hepatocytes [3]; [9]): no inhibition

Cc1cccc(Nc2ccccc2C(=O)O[C@@H]2O[C@H](C(=O)O)[C@@H](O)[C@H](O)[C@H]2O)c1C [MFA-1-O-G, mefenamic acid-1-O-acyl-glucuronide, reference compound]
transacylation of GSH (rate of MFA-GSH formation) [4]: 0.02±0.02 nM MFA-GSH/min | concentration formed at 60 min (rat hepatocytes [5]; [10]): 42200 nM | formation on ice (in words) (rat hepatocytes [5]; rat hepatocytes on ice (0°C)): nearly undetectable; also recorded: no MFA-1-O-G formation | reactivity towards GSH (rate of MFA-GSH formation) in the presence of GST [6]: 0.07±0.01 nM MFA-GSH/min | half life of degradation ([2]; buffer under physiological conditions): ~ 16 h | half life of degradation ([2]; previously reported, also confirmed in the authors' laboratory): 16.5 h

Cc1cccc(Nc2ccccc2C(=O)OP(=O)(O)OC[C@H]2O[C@@H](n3cnc4c(N)ncnc43)[C@H](O)[C@@H]2O)c1C [MFA-AMP, mefenamic acid-acyl-adenylate]
duration of incubation with no detectable hydrolysis [7]: at least 24 h | chemical stability over the 24 h incubation (in words) [7]: chemically stable | transacylation of GSH (rate of MFA-GSH formation) [4]: 0.21±0.02 nM MFA-GSH/min | fold lower concentration than MFA-GSH (rat hepatocytes [5]; [10]): 19 fold | maximum concentration formed (rat hepatocytes [5]; [10]): 90.2 nM | time of maximum concentration (rat hepatocytes [5]; [10]): 20 sec and ~ 20 sec | concentration at which formation levelled off (rat hepatocytes [5]; rat hepatocytes on ice (0°C)): 94.1 nM | time to maximum concentration (rat hepatocytes [5]; rat hepatocytes on ice (0°C)): 1 min | reactivity towards GSH (rate of MFA-GSH formation) in the presence of GST [6]: 1.25±0.28 nM MFA-GSH/min

Cc1cccc(Nc2ccccc2C(=O)SCCNC(=O)CCNC(=O)[C@H](O)C(C)(C)COP(=O)(O)OP(=O)(O)OC[C@H]2O[C@@H](n3cnc4c(N)ncnc43)[C@H](O)[C@@H]2OP(=O)(O)O)c1C [MFA-CoA, mefenamic acid-S-acyl-Coenzyme A]
duration of incubation with no detectable hydrolysis [7]: at least 24 h | transacylation of GSH (rate of MFA-GSH formation) [4]: 2.38±0.64 nM MFA-GSH/min | fold lower concentration than MFA-GSH (rat hepatocytes [5]; [10]): 37 fold | time point until which undetectable (rat hepatocytes [5]; [10]): 4 min | concentration formed at 60 min (rat hepatocytes [5]; [10]): 45.6 nM | time point until which undetectable (rat hepatocytes [5]; rat hepatocytes on ice (0°C)): 20 min and 10 min | concentration formed at 60 min (rat hepatocytes [5]; rat hepatocytes on ice (0°C)): 14.1 nM | fold decrease in concentration on ice versus 37°C (rat hepatocytes [5]; rat hepatocytes): 3.2 fold | reactivity towards GSH (rate of MFA-GSH formation) in the presence of GST [6]: 3.38±0.04 nM MFA-GSH/min

Cc1cccc(Nc2ccccc2C(=O)SC[C@H](NC(=O)CC[C@H](N)C(=O)O)C(=O)NCC(=O)O)c1C [MFA-GSH, mefenamic acid-S-acyl-glutathione]
duration of incubation with no detectable hydrolysis [7]: at least 24 h | chemical stability over the 24 h incubation (in words) [7]: stable | concentration formed at 60 min (rat hepatocytes [5]; [10]): 1700 nM | concentration formed at 60 min (rat hepatocytes [5]; rat hepatocytes on ice (0°C)): 83.9 nM | fold decrease in concentration on ice versus 37°C (rat hepatocytes [5]; rat hepatocytes): 20 fold | degradation in the presence of equine liver GST (equine liver GST): 10–11% | metabolic half life (rat hepatocytes [8]): ~ 8 min

CC(C)(Oc1ccc(Cl)cc1)C(=O)SCCNC(=O)CCNC(=O)C(O)C(C)(C)COP(=O)(O)OP(=O)(O)OCC1OC(n2cnc3c(N)ncnc32)C(O)C1OP(=O)(O)O (centres unmarked) [clofibric acid-S-acyl-CoA]
degradation half life [2, 11]: 21 days | hydrolysis per day [2, 11]: ~ 2 % hydrolysis/day

CCCCCCCCCCCC(=O)O [lauric acid]
inhibition of MFA-CoA formation (rat hepatocytes [3]; [9]): 58% | inhibition of MFA-GSH formation (rat hepatocytes [3]; [9]): 66%

CC(C)(COP(=O)(O)OP(=O)(O)OC[C@H]1O[C@@H](n2cnc3c(N)ncnc32)[C@H](O)[C@@H]1OP(=O)(O)O)[C@@H](O)C(=O)NCCC(=O)NCCSC(=O)Cc1ccccc1 [phenylacetyl-S-acyl-CoA]
stability after one day of incubation (in words) [2]: completely stable

Cc1cc(CC(=O)O[C@@H]2O[C@H](C(=O)O)[C@@H](O)[C@H](O)[C@H]2O)n(C)c1C(=O)c1ccc(Cl)cc1 [zomepirac-1-β-O-acyl glucuronide]
half-life of degradation (t1/2) [2]: 0.45 h
